{"source": "patent US11311609B2", "about": "“Regulating chimeric antigen receptors” (DANA-FARBER CANCER INSTITUTE, INC., priority 2017, dated 2022)", "tested_on": "FKBP*-KRASG12V", "experiment": "Immunoblot of FKBP*-KRASG12V degradation in NIH3T3 cells", "type": "cell-based", "conditions": "NIH3T3 cells; 500 nM, indicated time", "description": "FIG. 19 is an immunoblot of NIH3T3 cells expressing KRASG12V allele fused to FKBP* in the N-terminus or C-terminus. Cells were treated with 500 nM dFKBP7 for the indicated time. Cells were harvested and immunoblotted to measure degradation of FKBP*-KRASG12V and downstream surrogates of KRAS signaling (e.g. pMEK and pAKT).\n(§1) Cells were harvested and immunoblotted to measure degradation of FKBP*-KRASG12V and downstream surrogates of KRAS signaling (e.g. pMEK and pAKT).\nas §1, §1\nCells were treated with 500 nM dFKBP7 for the indicated time. Cells were harvested and immunoblotted to measure degradation of FKBP*-KRAS and downstream surrogates of KRAS signaling (e.g. pMEK and pAKT).\n(§2) Cells were harvested and immunoblotted to measure degradation of FKBP*-KRAS and downstream surrogates of KRAS signaling (e.g. pMEK and pAKT).\nas §2\nTo evaluate the kinetic control of targeted degradation of dTAG-KRAS, dFKBP13 was administered by increased duration. […]", "data": [{"compound": "CC[C@H](C(=O)N1CCCC[C@H]1C(=O)O[C@H](CCc1ccc(OC)c(OC)c1)c1cccc(OCC(=O)NCCCOCCOCCOCCCNC(=O)COc2cccc3c2C(=O)N(C2CCC(=O)NC2=O)C3=O)c1)c1cc(OC)c(OC)c(OC)c1", "note": "(stereo partly shown) [dFKBP7]", "values": [{"measurement": "Degradation of N-terminal dTAG-KRAS", "value": "potent degradation"}]}]}
